The values below come from patent publication US8389011B2, “Pharmaceutical compositions of cholesteryl ester transfer protein inhibitors” (Bend Research, Inc., priority 2000, dated 2013).

Data set [1] is described as follows: In vitro dissolution test, microcentrifuge method, in model fasted duodenal solution (MFDS). The class given is physicochemical. The procedure:
The compositions comprising the CETP inhibitor and concentration-enhancing polymer provide enhanced concentration of the dissolved CETP inhibitor in in vitro dissolution tests. It has been determined that enhanced drug concentration in in vitro dissolution tests in Model Fasted Duodenal (MFD) solution or Phosphate Buffered Saline (PBS) is a good indicator of in vivo performance and bioavailability. An appropriate PBS solution is an aqueous solution comprising 20 mM sodium phosphate (Na2HPO4), 47 mM potassium phosphate (KH2PO4), 87 mM NaCl, and 0.2 mM KCl, adjusted to pH 6.5 with NaOH. An appropriate MFD solution is the same PBS solution wherein additionally is present 7.3 mM sodium taurocholic acid and 1.4 mM of 1-palmitoyl-2-oleyl-sn-glycero-3-phosphocholine. In particular, a composition of the present invention can be dissolution-tested by adding it to MFD or PBS solution and agitating to promote dissolution.
A typical in vitro test to evaluate enhanced drug concentration in aqueous solution can be conducted by (1) adding with agitation a sufficient quantity of control composition, typically the CETP inhibitor alone, to the in vitro test medium, typically MFD or PBS solution, to achieve equilibrium concentration of the CETP inhibitor; (2) adding with agitation a sufficient quantity of test composition (e.g., the CETP inhibitor and polymer) in an equivalent test medium, such that if all the CETP inhibitor dissolved, the theoretical concentration of CETP inhibitor would exceed the equilibrium concentration of the CETP inhibitor by a factor of at least 10, and preferably a factor of at least 100; and (3) comparing the measured MDC and/or aqueous concentration versus time AUC of the test composition in the test medium with the equilibrium concentration, and/or the aqueous concentration versus time AUC of the control composition. In conducting such a dissolution test, the amount of test composition or control composition used is an amount such that if all of the CETP inhibitor dissolved the CETP inhibitor concentration would be at least 10-fold and preferably at least 100-fold that of the equilibrium concentration. Indeed, for some extremely insoluble CETP inhibitors, in order to identify the MDC achieved it may be necessary to use an amount of test composition such that if all of the CETP inhibitor dissolved, the CETP inhibitor concentration would be 10,000-fold or even more, that of the equilibrium concentration of the CETP inhibitor.
The concentration of dissolved CETP inhibitor is typically measured as a function of time by sampling the test medium and plotting CETP inhibitor concentration in the test medium vs. time so that the MDC can be ascertained. The MDC is taken to be the maximum value of dissolved CETP inhibitor measured over the duration of the test.
To avoid large CETP inhibitor particulates which would give an erroneous determination, the test solution is either filtered or centrifuged. “Dissolved CETP inhibitor” is typically taken as that material that either passes a 0.45 μm syringe filter or, alternatively, the material that remains in the supernatant following centrifugation. Filtration can be conducted using a 13 mm, 0.45 μm polyvinylidine difluoride syringe filter sold by Scientific Resources under the trademark TITAN®. Centrifugation is typically carried out in a polypropylene microcentrifuge tube by centrifuging at 13,000 G for 60 seconds. Other similar filtration or centrifugation methods can be employed and useful results obtained. For example, using other types of microfilters may yield values somewhat higher or lower (±10-40%) than that obtained with the filter specified above but will still allow identification of preferred dispersions. […]

The nature of data set [2]: Solubility in water. The class given is physicochemical. The source says:
The invention is useful for CETP inhibitors which have sufficiently low aqueous solubility, low bioavailability or slow rate of absorption such that it is desirable to increase their concentration in an aqueous environment of use. Therefore, anytime one finds it desirable to raise the aqueous concentration of the CETP inhibitor in a use environment, the invention will find utility.

The mark [3] stands for this setting: Table 9, Drug 2, receptor solution MFDS, TCmax 400 μg/mL (Examples 14-16: 100 μg/mL).
[4] abbreviates: aqueous solubility determined at about 22° C. unless otherwise specified, read-out: solubility in water.

Converted amounts (≈) assume the structure as drawn. Like-named read-outs stand apart in the source and are kept apart here.

As a reminder, the solubility is the dissolved amount per volume that the medium holds.

On to `COC(=O)N(Cc1cc(C(F)(F)F)cc(C(F)(F)F)c1)[C@@H]1C[C@H](C2CC2)N(C(=O)OC(C)C)c2ccc(C(F)(F)F)cc21` [Control 1, [2R,4R]4-[(3,5-bis-trifluoromethyl-benzyl)-methoxycarbonyl-amino]-2-cyclopropyl-6-trifluoromethyl-3,4-dihydro-2H-quinoline-1-carboxylic acid isopropyl ester], for which the Concentration in data set [1] (Table 2, Drug 1, MFDS, 37° C., 0 min, TCmax 100 μg/mL (Example 4: 500 μg/mL)) was 0 ng/mL; in data set [1] (Table 2, Drug 1, MFDS, 37° C., 4 min, TCmax 100 μg/mL), less than 100 ng/mL; in data set [1] (Table 2, Drug 1, MFDS, 37° C., 10 min, TCmax 100 μg/mL (Example 4: 500 μg/mL)), 300 ng/mL; in data set [1] (Table 2, Drug 1, MFDS, 37° C., 20 min, TCmax 100 μg/mL), 300 ng/mL; in data set [1] (Table 2, Drug 1, MFDS, 37° C., 40 min, TCmax 100 μg/mL), 900 ng/mL; in data set [1] (Table 2, Drug 1, MFDS, 37° C., 90 min, TCmax 100 μg/mL (Example 4: 500 μg/mL)), 800 ng/mL. The AUC in data set [1] (Table 2, Drug 1, MFDS, 37° C., to 0 min, TCmax 100 μg/mL (Example 4: 500 μg/mL)) is given as 0 min-μg/mL; in data set [1] (Table 2, Drug 1, MFDS, 37° C., to 4 min, TCmax 100 μg/mL), less than 0.1 min-μg/mL; in data set [1] (Table 2, Drug 1, MFDS, 37° C., to 10 min, TCmax 100 μg/mL (Example 4: 500 μg/mL)), 1 min-μg/mL; in data set [1] (Table 2, Drug 1, MFDS, 37° C., to 20 min, TCmax 100 μg/mL) it was 4 min-μg/mL; in data set [1] (Table 2, Drug 1, MFDS, 37° C., to 40 min, TCmax 100 μg/mL) it was 16 min-μg/mL; in data set [1] (Table 2, Drug 1, MFDS, 37° C., to 90 min, TCmax 100 μg/mL (Example 4: 500 μg/mL)), 57 min-μg/mL. The molecule further gave an AUC90 in data set [1] (Table 3, area under the aqueous concentration versus time curve during the 90-minute test, Drug 1, MFDS, TCmax 100 μg/mL (Example 4: 500 μg/mL)) of 57 min-μg/mL. The “Cmax, 90” value in data set [1] (Table 3, maximum concentration of Drug 1 in solution during the 90-minute test, MFDS, TCmax 100 μg/mL (Example 4: 500 μg/mL)) was found to be 900 ng/mL.

As for `CCOC(=O)N1c2ccc(C(F)(F)F)cc2[C@@H](N(Cc2cc(C(F)(F)F)cc(C(F)(F)F)c2)C(=O)OC)C[C@H]1CC` [Control 3, [2R,4S]4-[(3,5-bis-trifluoromethyl-benzyl)-methoxycarbonyl-amino]-2-ethyl-6-trifluoromethyl-3,4-dihydro-2H-quinoline-1-carboxylic acid ethyl ester], the Concentration in data set [1] (Table 8, Drug 2, receptor MFDS, 0 min, TCmax 400 μg/ml (Examples 14-16: 100 μg/ml)) is 0 ng/mL; in data set [1] (Table 8, Drug 2, receptor MFDS, 4 min, TCmax 400 μg/ml), less than 1000 ng/mL; in data set [1] (Table 8, Drug 2, receptor MFDS, 10 min, TCmax 400 μg/ml (Examples 14-16: 100 μg/ml)) it was less than 1000 ng/mL; in data set [1] (Table 8, Drug 2, receptor MFDS, 20 min, TCmax 400 μg/ml (Examples 14-16: 100 μg/ml)), less than 1000 ng/mL; in data set [1] (Table 8, Drug 2, receptor MFDS, 40 min, TCmax 400 μg/ml (Examples 14-16: 100 μg/ml)) it was less than 1000 ng/mL; in data set [1] (Table 8, Drug 2, receptor MFDS, 90 min, TCmax 400 μg/ml (Examples 14-16: 100 μg/ml)) it was less than 1000 ng/mL. Further, the AUC is recorded as 0 min-μg/ml in data set [1] (Table 8, Drug 2, receptor MFDS, to 0 min, TCmax 400 μg/ml (Examples 14-16: 100 μg/ml)); less than 4 min-μg/ml in data set [1] (Table 8, Drug 2, receptor MFDS, to 4 min, TCmax 400 μg/ml); less than 10 min-μg/ml in data set [1] (Table 8, Drug 2, receptor MFDS, to 10 min, TCmax 400 μg/ml (Examples 14-16: 100 μg/ml)); less than 20 min-μg/ml in data set [1] (Table 8, Drug 2, receptor MFDS, to 20 min, TCmax 400 μg/ml (Examples 14-16: 100 μg/ml)); less than 40 min-μg/ml in data set [1] (Table 8, Drug 2, receptor MFDS, to 40 min, TCmax 400 μg/ml (Examples 14-16: 100 μg/ml)); less than 90 min-μg/ml in data set [1] (Table 8, Drug 2, receptor MFDS, to 90 min, TCmax 400 μg/ml (Examples 14-16: 100 μg/ml)). Also, the AUC90 in data set [1] (setting [3]) is given as less than 90 min-μg/mL; in data set [1] (Table 22: Drug 2, MFD solution), less than 90 min-μg/mL. Moreover, the “Cmax, 90” value in data set [1] (setting [3]) is less than 1000 ng/mL; in data set [1] (Table 22: Drug 2, MFD solution), less than 1000 ng/mL.

For the molecule `COC(=O)N(Cc1cc(C(F)(F)F)cc(C(F)(F)F)c1)[C@@H]1C[C@H](C2CC2)N(C(=O)OC(C)C)c2ccc(C(F)(F)F)cc21` [Drug 1, [2R,4R]4-[(3,5-bis-trifluoromethyl-benzyl)-methoxycarbonyl-amino]-2-cyclopropyl-6-trifluoromethyl-3,4-dihydro-2H-quinoline-1-carboxylic acid isopropyl ester], the solubility in data set [2] (setting [4]) is less than 1 µg/mL.

As to `CCOC(=O)N1c2ccc(C(F)(F)F)cc2[C@@H](N(Cc2cc(C(F)(F)F)cc(C(F)(F)F)c2)C(=O)OC)C[C@H]1CC` [Drug 2, [2R,4S]4-[(3,5-bis-trifluoromethyl-benzyl)-methoxycarbonyl-amino]-2-ethyl-6-trifluoromethyl-3,4-dihydro-2H-quinoline-1-carboxylic acid ethyl ester], the solubility was roughly 0.01 µg/mL (≈ 0.0167 µM) in data set [2] (22 °C, crystalline drug, read-out: solubility of crystalline Drug 2 (accurate measurements)) and less than 1 µg/mL in data set [2] (setting [4]).

`CCCOC(=O)N1c2ccc(C(F)(F)F)cc2[C@@H](N(Cc2cc(C(F)(F)F)cc(C(F)(F)F)c2)C(=O)OC)C[C@H]1CC` [Drug 3, [2R,4S]4-[(3,5-bis-trifluoromethyl-benzyl)-methoxycarbonyl-amino]-2-ethyl-6-trifluoromethyl-3,4-dihydro-2H-quinoline-1-carboxylic acid propyl ester]: the solubility in data set [2] (setting [4]) was less than 0.1 µg/mL.

For `CCOC(=O)N1c2cc(OC)c(OC)cc2[C@@H](N(Cc2cc(C(F)(F)F)cc(C(F)(F)F)c2)C(=O)OC)C[C@H]1C` [Drug 4, [2R,4S]4-[(3,5-bis-trifluoromethyl-benzyl)-methoxycarbonyl-amino]-6,7-dimethoxy-2-methyl-3,4-dihydro-2H-quinoline-1-carboxylic acid ethyl ester], the solubility in data set [2] (setting [4]) was less than 1 µg/mL.

For `CCOC(=O)N1c2cc(CC)c(CC)cc2[C@@H](N(Cc2cc(C(F)(F)F)cc(C(F)(F)F)c2)C(=O)OC)C[C@H]1C` [Drug 5, [2R,4S]4-[(3,5-bis-trifluoromethyl-benzyl)-methoxycarbonyl-amino]-6,7-diethyl-2-methyl-3,4-dihydro-2H-quinoline-1-carboxylic acid ethyl ester], the solubility in data set [2] (setting [4]) is less than 1 µg/mL.

As for `CCOC(=O)N1c2cc3c(cc2[C@@H](N(Cc2cc(C(F)(F)F)cc(C(F)(F)F)c2)C(=O)OC)C[C@H]1C)CCC3` [Drug 6, [2R,4S]4-[(3,5-bis-trifluoromethyl-benzyl)-methoxycarbonyl-amino]-2-methyl-2,3,4,6,7,8-hexahydro-cyclopenta[g]quinoline-1-carboxylic acid ethyl ester], the solubility in data set [2] (setting [4]) is less than 1 µg/mL.

On to `CC[C@@H]1C[C@H](N(Cc2cc(C(F)(F)F)cc(C(F)(F)F)c2)C(C)=O)c2cc(C(F)(F)F)ccc2N1C(=O)OC(C)C` [Drug 7, [2R,4S]4-[acetyl-(3,5-bis-trifluoromethyl-benzyl)-amino]-2-ethyl-6-trifluoromethyl-3,4-dihydro-2H-quinoline-1-carboxylic acid isopropyl ester], for which the solubility in data set [2] (setting [4]) is less than 1 µg/mL.
